US20240299385A1 (ReWind Therapeutics NV, priority 2021, published 2024)

Target: T1, human GPR17 receptor (Homo sapiens, UniProt Q13304)
T1 construct: host or cells: HEK-293
Experiment: Calcium mobilization functional assay (Fluo-8, FLIPR TETRA) in HEK-293 hGPR17 (Gα-q assay)
Assay type: cell-based
Settings: antagonism of MDL29,951 (~EC80) induced Ca2+ signal; cell line (HEK-293 hGPR17 or HEK-293 Suchi5 hGPR17) not given
Procedure, shortened: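 Fluo-8-loaded HEK-293 hGPR17 cells (60 min dye loading, room temperature) were preincubated with compound for twenty minutes, then challenged with agonist MDL29,951 at ~EC80, 500 nM. Intracellular calcium release via Gα-q was recorded as FLIPR fluorescence for a further 2 minutes; compounds tested in duplicate.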

T1 sequence (Q13304 whole entry): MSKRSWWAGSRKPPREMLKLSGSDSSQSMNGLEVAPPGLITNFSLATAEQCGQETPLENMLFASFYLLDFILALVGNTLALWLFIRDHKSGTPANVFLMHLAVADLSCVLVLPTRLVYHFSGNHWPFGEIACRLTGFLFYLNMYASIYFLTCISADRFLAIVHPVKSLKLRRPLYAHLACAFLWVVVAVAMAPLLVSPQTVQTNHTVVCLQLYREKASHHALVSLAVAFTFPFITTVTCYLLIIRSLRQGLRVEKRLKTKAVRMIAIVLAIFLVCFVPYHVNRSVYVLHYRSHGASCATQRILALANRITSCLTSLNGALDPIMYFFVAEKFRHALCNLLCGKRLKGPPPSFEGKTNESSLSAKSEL

Row | SMILES | IC50
1 | O=S(=O)(Nc1nc(F)c(OCCF)cc1F)c1c[nH]cc1Cc1ccccc1 [Cpd 501, 4-benzyl-N-[3,6-difluoro-5-(2-fluoroethoxy)pyridin-2-yl]-1H-pyrrole-3-sulfonamide] | 500 to 5000 nM
2 | Cc1ccnc(-c2cc(S(=O)(=O)Nc3ccc(C#N)cc3F)c[nH]2)c1 [Cpd 503, N-(4-cyano-2-fluorophenyl)-5-(4-methylpyridin-2-yl)-1H-pyrrole-3-sulfonamide] | 500 to 5000 nM
3 | O=C1C=C(c2cc(S(=O)(=O)Nc3cc(F)c(C(F)(F)F)cc3F)c[nH]2)CC1 [Cpd 505, N-(2,5-difluoro-4-(trifluoromethyl)phenyl)-5-(3-oxocyclopent-1-en-1-yl)-1H-pyrrole-3-sulfonamide] | 5000 to 50000 nM
4 | CN(C)c1ccccc1-c1cc(S(=O)(=O)Nc2ccc(C#N)cc2F)c[nH]1 [Cpd 506, N-(4-cyano-2-fluorophenyl)-5-[2-(dimethylamino)phenyl]-1H-pyrrole-3-sulfonamide] | 500 to 5000 nM
5 | N#Cc1ccc(NS(=O)(=O)c2c[nH]c(-c3cc(Cl)c(F)cc3F)c2)c(F)c1 [Cpd 507, 5-(5-chloro-2,4-difluorophenyl)-N-(4-cyano-2-fluorophenyl)-1H-pyrrole-3-sulfonamide] | 500 to 5000 nM
6 | Cc1cc(NS(=O)(=O)c2c[nH]c(-c3ccc(F)cc3)c2)c(F)cc1C#N [Cpd 513, N-(4-cyano-2-fluoro-5-methylphenyl)-5-(4-fluorophenyl)-1H-pyrrole-3-sulfonamide] | 500 to 5000 nM
7 | Cc1cc(NS(=O)(=O)c2c[nH]c(-c3ccc(F)cc3F)c2)c(F)cc1C#N [Cpd 514, N-(4-cyano-2-fluoro-5-methylphenyl)-5-(2,4-difluorophenyl)-1H-pyrrole-3-sulfonamide] | 500 to 5000 nM
8 | O=S(=O)(Nc1cc(F)c(C(F)(F)F)cc1F)c1c[nH]c(-c2cccc3ccoc23)c1 [Cpd 517, 5-(1-benzofuran-7-yl)-N-[2,5-difluoro-4-(trifluoromethyl)phenyl]-1H-pyrrole-3-sulfonamide] | 500 to 5000 nM
9 | COc1cscc1-c1cc(S(=O)(=O)Nc2cc(F)c(C(F)(F)F)cc2F)c[nH]1 [Cpd 518, N-[2,5-difluoro-4-(trifluoromethyl)phenyl]-5-(4-methoxythiophen-3-yl)-1H-pyrrole-3-sulfonamide] | 500 to 5000 nM
10 | O=S(=O)(Nc1cc(F)c(C(F)(F)F)cc1F)c1c[nH]c(-c2cccc3c2OCC3)c1 [Cpd 519, N-[2,5-difluoro-4-(trifluoromethyl)phenyl]-5-(2,3-dihydro-1-benzofuran-7-yl)-1H-pyrrole-3-sulfonamide] | 500 to 5000 nM
11 | O=C1CCC(c2cc(S(=O)(=O)Nc3cc(F)c(C(F)(F)F)cc3F)c[nH]2)C1 (stereo not shown) [Cpd 520, N-(2,5-difluoro-4-(trifluoromethyl)phenyl)-5-(3-oxocyclopentyl)-1H-pyrrole-3-sulfonamide] | 5000 to 50000 nM
12 | CN(C)c1cccc(-c2cc(S(=O)(=O)Nc3ccc(C#N)cc3F)c[nH]2)c1 [Cpd 521, N-(4-cyano-2-fluorophenyl)-5-[3-(dimethylamino)phenyl]-1H-pyrrole-3-sulfonamide] | 5000 to 50000 nM
13 | N#Cc1cc(F)c(NS(=O)(=O)c2c[nH]c(-c3ccccc3F)c2)cc1Cl [Cpd 522, N-(5-chloro-4-cyano-2-fluorophenyl)-5-(2-fluorophenyl)-1H-pyrrole-3-sulfonamide] | < 500 nM
14 | N#Cc1cc(F)c(NS(=O)(=O)c2c[nH]c(-c3ccc(F)cc3)c2)cc1Cl [Cpd 524, N-(5-chloro-4-cyano-2-fluorophenyl)-5-(4-fluorophenyl)-1H-pyrrole-3-sulfonamide] | 500 to 5000 nM
15 | N#Cc1cc(F)c(NS(=O)(=O)c2c[nH]c(-c3ccc(F)cc3F)c2)cc1Cl [Cpd 525, N-(5-chloro-4-cyano-2-fluorophenyl)-5-(2,4-difluorophenyl)-1H-pyrrole-3-sulfonamide] | 500 to 5000 nM
16 | O=S(=O)(Nc1cc(F)c(OC(F)F)cc1F)c1c[nH]c(-c2ccccc2Cl)c1 [Cpd 526, 5-(2-chlorophenyl)-N-[4-(difluoromethoxy)-2,5-difluorophenyl]-1H-pyrrole-3-sulfonamide] | 500 to 5000 nM
17 | COc1ccccc1-c1cc(S(=O)(=O)Nc2cc(F)c(Br)cc2F)c[nH]1 [Cpd 532, N-(4-bromo-2,5-difluorophenyl)-5-(2-methoxyphenyl)-1H-pyrrole-3-sulfonamide] | 500 to 5000 nM
18 | O=S(=O)(Nc1cc(F)c(Br)cc1F)c1c[nH]c(-c2ccccc2Cl)c1 [Cpd 533, N-(4-bromo-2,5-difluorophenyl)-5-(2-chlorophenyl)-1H-pyrrole-3-sulfonamide] | 500 to 5000 nM
19 | O=S(=O)(Nc1cc(F)c(Br)cc1F)c1c[nH]c(-c2cccc3cccnc23)c1 [Cpd 534, N-(4-bromo-2,5-difluorophenyl)-5-quinolin-8-yl-1H-pyrrole-3-sulfonamide] | 500 to 5000 nM
20 | O=S(=O)(Nc1cc(F)c(CO)cc1F)c1c[nH]c(-c2ccccc2)c1 [Cpd 537, N-[2,5-difluoro-4-(hydroxymethyl)phenyl]-5-phenyl-1H-pyrrole-3-sulfonamide] | 500 to 5000 nM
21 | Cc1ncc(-c2cc(S(=O)(=O)Nc3cc(F)c(C(F)(F)F)cc3F)c[nH]2)s1 [Cpd 538, N-[2,5-difluoro-4-(trifluoromethyl)phenyl]-5-(2-methyl-1,3-thiazol-5-yl)-1H-pyrrole-3-sulfonamide] | 500 to 5000 nM
22 | COc1sccc1-c1cc(S(=O)(=O)Nc2cc(F)c(C(F)(F)F)cc2F)c[nH]1 [Cpd 539, N-[2,5-difluoro-4-(trifluoromethyl)phenyl]-5-(2-methoxythiophen-3-yl)-1H-pyrrole-3-sulfonamide] | < 500 nM
23 | Cn1cc2cccc(-c3cc(S(=O)(=O)Nc4cc(F)c(C(F)(F)F)cc4F)c[nH]3)c2n1 [Cpd 540, N-[2,5-difluoro-4-(trifluoromethyl)phenyl]-5-(2-methylindazol-7-yl)-1H-pyrrole-3-sulfonamide] | 500 to 5000 nM

Results, then the compound that gave them:

Row | IC50 | SMILES
24 | < 500 nM | N#Cc1ccc(NS(=O)(=O)c2c[nH]c(-c3cccc(F)n3)c2)c(F)c1 [Cpd 502, N-(4-cyano-2-fluorophenyl)-5-(6-fluoropyridin-2-yl)-1H-pyrrole-3-sulfonamide]
25 | < 500 nM | Cc1cccc(-c2cc(S(=O)(=O)Nc3ccc(C#N)cc3F)c[nH]2)n1 [Cpd 504, N-(4-cyano-2-fluorophenyl)-5-(6-methylpyridin-2-yl)-1H-pyrrole-3-sulfonamide]
26 | < 500 nM | N#Cc1cc(F)c(NS(=O)(=O)c2c[nH]c(-c3cc(Cl)ccc3F)c2)cc1F [Cpd 508, 5-(5-chloro-2-fluorophenyl)-N-(4-cyano-2,5-difluorophenyl)-1H-pyrrole-3-sulfonamide]
27 | < 500 nM | N#Cc1cc(F)c(NS(=O)(=O)c2c[nH]c(-c3ccc(F)cc3)c2)cc1F [Cpd 509, N-(4-cyano-2,5-difluorophenyl)-5-(4-fluorophenyl)-1H-pyrrole-3-sulfonamide]
28 | < 500 nM | N#Cc1cc(F)c(NS(=O)(=O)c2c[nH]c(-c3ccc(F)cc3F)c2)cc1F [Cpd 510, N-(4-cyano-2,5-difluorophenyl)-5-(2,4-difluorophenyl)-1H-pyrrole-3-sulfonamide]
29 | < 500 nM | Cc1cc(NS(=O)(=O)c2c[nH]c(-c3ccccc3F)c2)c(F)cc1C#N [Cpd 511, N-(4-cyano-2-fluoro-5-methylphenyl)-5-(2-fluorophenyl)-1H-pyrrole-3-sulfonamide]
30 | < 500 nM | Cc1cc(NS(=O)(=O)c2c[nH]c(-c3cc(Cl)ccc3F)c2)c(F)cc1C#N [Cpd 512, 5-(5-chloro-2-fluorophenyl)-N-(4-cyano-2-fluoro-5-methylphenyl)-1H-pyrrole-3-sulfonamide]
31 | < 500 nM | O=S(=O)(Nc1cc(F)c(OC(F)F)cc1F)c1c[nH]c(-c2cccc(Cl)n2)c1 [Cpd 515, 5-(6-chloropyridin-2-yl)-N-[4-(difluoromethoxy)-2,5-difluorophenyl]-1H-pyrrole-3-sulfonamide]
32 | < 500 nM | O=S(=O)(Nc1cc(F)c(OC(F)F)cc1F)c1c[nH]c(-c2cccc(Br)n2)c1 [Cpd 516, 5-(6-bromopyridin-2-yl)-N-[4-(difluoromethoxy)-2,5-difluorophenyl]-1H-pyrrole-3-sulfonamide]
33 | < 500 nM | N#Cc1cc(F)c(NS(=O)(=O)c2c[nH]c(-c3cc(Cl)ccc3F)c2)cc1Cl [Cpd 523, N-(5-chloro-4-cyano-2-fluorophenyl)-5-(5-chloro-2-fluorophenyl)-1H-pyrrole-3-sulfonamide]
34 | < 500 nM | O=S(=O)(Nc1cc(F)c(Br)cc1F)c1c[nH]c(-c2cccc(Cl)n2)c1 [Cpd 527, N-(4-bromo-2,5-difluorophenyl)-5-(6-chloropyridin-2-yl)-1H-pyrrole-3-sulfonamide]
35 | < 500 nM | O=S(=O)(Nc1cc(F)c(Br)cc1F)c1c[nH]c(-c2cccc(Br)n2)c1 [Cpd 528, N-(4-bromo-2,5-difluorophenyl)-5-(6-bromopyridin-2-yl)-1H-pyrrole-3-sulfonamide]
36 | < 500 nM | CCc1cc(NS(=O)(=O)c2c[nH]c(-c3ccccc3)c2)c(F)cc1C#N [Cpd 529, N-(4-cyano-5-ethyl-2-fluorophenyl)-5-phenyl-1H-pyrrole-3-sulfonamide]
37 | < 500 nM | COc1ccccc1-c1cc(S(=O)(=O)Nc2cc(F)c(OC(F)F)cc2F)c[nH]1 [Cpd 530, N-[4-(difluoromethoxy)-2,5-difluorophenyl]-5-(2-methoxyphenyl)-1H-pyrrole-3-sulfonamide]
38 | < 500 nM | COc1c(F)cccc1-c1cc(S(=O)(=O)Nc2cc(F)c(OC(F)F)cc2F)c[nH]1 [Cpd 531, N-[4-(difluoromethoxy)-2,5-difluorophenyl]-5-(3-fluoro-2-methoxyphenyl)-1H-pyrrole-3-sulfonamide]
39 | < 500 nM | N#Cc1ccc(NS(=O)(=O)c2c[nH]cc2Cc2ccc(F)c(F)c2)c(F)c1 [Cpd 535, N-(4-cyano-2-fluorophenyl)-4-[(3,4-difluorophenyl)methyl]-1H-pyrrole-3-sulfonamide]
40 | < 500 nM | COc1cc(Cc2c[nH]cc2S(=O)(=O)Nc2ccc(C#N)cc2F)ccc1F [Cpd 536, N-(4-cyano-2-fluorophenyl)-4-[(4-fluoro-3-methoxyphenyl)methyl]-1H-pyrrole-3-sulfonamide]
